The text below walks through data of US4079134A, “7-Acylamino-3-(5-sulfomethyl-1,3,4-thiadiazol-2-y lthiomethyl)-3-cephem-4-carboxylic acids” (SmithKline Corporation, priority 1976, dated 1978).

Structures are written as SMILES. ≈ marks a conversion by molar mass, not a printed value. Counter-ions that a name gives are not always drawn. Like-named read-outs stand apart in the source and are kept apart here.

In assay [1] the test system is S. aureus villaluz SK 70390. Nature of the assay: MIC in vitro. The assay is classed as cell-based. The settings on record: Staphylococcus aureus, read-out: minimum inhibitory concentration (MIC). On the procedure:
(§1) The compounds of Formula I have antibacterial activity against either Gram positive or Gram negative bacteria with minimum inhibitory concentrations (MIC's) in vitro from 0.4 to 200 μg/ml. Test results for 7-D-mandelamido-3-(5-sulfomethyl-1,3,4-thiadiazol-2-ylthiomethyl)-3-cephem-4-carboxylic acid, disodium salt, tetrahydrate (A) are: […]

The test system of assay [2] is Serratia marc. ATCC 13880. Put plainly: MIC in vitro. The assay is classed as cell-based. As to conditions: ATCC13880, read-out: minimum inhibitory concentration (MIC). As for the experimental part: as §1
For a further assay, the system named is E. coli HH 33779. Put plainly: MIC in vitro. The format is cell-based. As to conditions: Escherichia coli. As for the experimental part:
as §1

Assay [3] concerns Entero. aerog. ATCC 13048. Nature of the assay: MIC in vitro. The assay is classed as cell-based. The settings on record: read-out: minimum inhibitory concentration (MIC). On the procedure: as §1
A further assay has as its system Kleb. pneumo. SK 1200. Nature of the assay: MIC in vitro. The format is cell-based. The settings on record: read-out: minimum inhibitory concentration (MIC). As for the experimental part: as §1
In the next assay the test system is Salmonella ATCC 12176. Nature of the assay: MIC in vitro. The assay is classed as cell-based. The settings on record: ATCC12176, read-out: minimum inhibitory concentration (MIC). As for the experimental part:
as §1

The next assay relates to Entero. cloacae HH 31254. Put plainly: MIC in vitro. The assay is classed as cell-based. The settings on record: Enterobacter cloacae, HH31254, read-out: minimum inhibitory concentration (MIC). As for the experimental part: as §1
In another assay the test system is Strep. Faecalis HH 34358. Nature of the assay: MIC in vitro. The format is cell-based. The settings on record: Enterococcus faecalis, read-out: minimum inhibitory concentration (MIC). On the procedure:
as §1

The test system of a further assay is Kleb. pneumo. SK 4200. Put plainly: MIC in vitro. The format is cell-based. The settings on record: read-out: minimum inhibitory concentration (MIC). As for the experimental part: as §1
The test system of the next assay is S. aureus SK 23390. Put plainly: MIC in vitro. The assay is classed as cell-based. As to conditions: Staphylococcus aureus. As for the experimental part: as §1
A further assay relates to Proteus morgani 179. Put plainly: MIC in vitro. The format is cell-based. As to conditions: read-out: minimum inhibitory concentration (MIC). As for the experimental part: as §1
In another assay the test system is S. aureus HH 127. Put plainly: MIC in vitro. As to conditions: Staphylococcus aureus. The format is cell-based. On the procedure: as §1
The subject of the next assay is Pseudo. aeru. HH 63. Put plainly: MIC in vitro. The settings on record: read-out: minimum inhibitory concentration (MIC). The assay is classed as cell-based. On the procedure:
as §1

A further assay deals with Proteus mirabilis PN-444. Put plainly: MIC in vitro. The format is cell-based. On the procedure: as §1
A further assay deals with E. coli SK 12140. Nature of the assay: MIC in vitro. The format is cell-based. The settings on record: Escherichia coli. On the procedure: as §1
The test system of the next assay is Kleb. pneumo. Put plainly: ED50 in infected mice. The format is in vivo. As to conditions: two determinations; for ED50: Mus musculus, read-out: ED50 in mice against Kleb. pneumo. As for the experimental part: (s.c.); 25 and 10 mg/kg against E. coli as well as 8.7 and 8.5 mg/kg against Kleb. pneumo. (p.o.).
Another assay has as its system E. coli. Nature of the assay: ED50 in infected mice. The format is in vivo. The settings on record: two determinations; for ED50: Escherichia coli, read-out: ED50 in mice against E. coli.
Where [4] appears, read: in vitro, S. aureus villaluz SK 70390.
The mark [5] stands for this setting: HH33779, in vitro, E. coli HH 33779, read-out: minimum inhibitory concentration (MIC).
The mark [6] stands for this setting: SK23390, in vitro, S. aureus SK 23390, read-out: minimum inhibitory concentration (MIC).
[7] abbreviates: HH127, in vitro, S. aureus HH 127, read-out: minimum inhibitory concentration (MIC).
Setting [8] is: PN444, in vitro, Proteus mirabilis PN-444, read-out: minimum inhibitory concentration (MIC).
Where [9] appears, read: SK12140, in vitro, E. coli SK 12140, read-out: minimum inhibitory concentration (MIC).

On to `Cc1nnc(SCC2=C(C(=O)O)N3C(=O)[C@@H](NC(=O)Cn4cnnn4)[C@H]3SC2)s1` [Cefazolin], for which the MIC in assay [1] (setting [4]) was 100 µg/mL (≈ 220 µM); in [2], more than 200 µg/mL; in the assay on E. coli HH 33779 (setting [5]) it was 1.6 µg/mL (≈ 3.52 µM); in [3] it was 1.6 µg/mL (≈ 3.52 µM); in the assay with Kleb. pneumo. SK 1200 it was 0.8 µg/mL (≈ 1.76 µM); in the assay on Salmonella ATCC 12176 it was 0.8 µg/mL (≈ 1.76 µM). The MIC was 0.8 µg/mL (≈ 1.76 µM) in the assay on Entero. cloacae HH 31254; 6.3 µg/mL (≈ 13.9 µM) in the assay with Strep. Faecalis HH 34358; 1.6 µg/mL (≈ 3.52 µM) in the assay on Kleb. pneumo. SK 4200; 0.2 µg/mL (≈ 0.44 µM) with S. aureus SK 23390 (setting [6]); more than 200 µg/mL in the assay with Proteus morgani 179 (in vitro, Proteus morgani 179); 0.4 µg/mL (≈ 0.88 µM) in the assay with S. aureus HH 127 (setting [7]). The results for the MIC in the assay with Pseudo. aeru. HH 63, in the assay on Proteus mirabilis PN-444 (setting [8]) and with E. coli SK 12140 (setting [9]) were more than 200 µg/mL, 3.1 µg/mL (≈ 6.82 µM) and 0.8 µg/mL (≈ 1.76 µM), respectively.

Usually ED50 stands for the midpoint of the dose-response relation. With `CC1=C(C(=O)O)N2C(=O)[C@@H](NC(=O)[C@H](N)c3ccccc3)[C@H]2SC1` [Cephalexin], the ED50 in the assay with Kleb. pneumo. (po) was found to be 19 mg/kg; in the assay on Kleb. pneumo. (sc), 16.5 mg/kg; in the assay on E. coli (po), 21.5 mg/kg; in the assay on E. coli (sc) it was 12.5 mg/kg. The “ED50 in mice against Kleb. pneumo.” value in the assay on Kleb. pneumo. (p.o.) is on record as 10 mg/kg. Besides, in the assay with E. coli (p.o.), the “ED50 in mice against E. coli” value turned out to be 18 mg/kg.

Turning to `CC(=O)OCC1=C(C(=O)O)N2C(=O)[C@@H](NC(=O)Cc3cccs3)[C@H]2SC1` [Cephalothin], the MIC in assay [1] is 50 µg/mL (≈ 126 µM); in [2], more than 200 µg/mL; in the assay on E. coli HH 33779 (HH33779, read-out: minimum inhibitory concentration (MIC)) it was 6.3 µg/mL (≈ 15.9 µM); in assay [3], 12.5 µg/mL (≈ 31.5 µM); in the assay with Kleb. pneumo. SK 1200, 1.6 µg/mL (≈ 4.04 µM); in the assay on Salmonella ATCC 12176 it was 1.6 µg/mL (≈ 4.04 µM). Also, the MIC in the assay on Entero. cloacae HH 31254 is 6.3 µg/mL (≈ 15.9 µM); in the assay on Strep. Faecalis HH 34358, 6.3 µg/mL (≈ 15.9 µM); in the assay with Kleb. pneumo. SK 4200, 1.6 µg/mL (≈ 4.04 µM); in the assay on S. aureus SK 23390 (SK23390, read-out: minimum inhibitory concentration (MIC)) it was 0.1 µg/mL (≈ 0.252 µM); in the assay on Proteus morgani 179, more than 200 µg/mL; in the assay with S. aureus HH 127 (HH127, read-out: minimum inhibitory concentration (MIC)) it was 0.4 µg/mL (≈ 1.01 µM). The MIC is more than 200 µg/mL in the assay with Pseudo. aeru. HH 63; 0.8 µg/mL (≈ 2.02 µM) with Proteus mirabilis PN-444 (Proteus mirabilis, PN444, read-out: minimum inhibitory concentration (MIC)); 3.1 µg/mL (≈ 7.82 µM) in the assay with E. coli SK 12140 (SK12140, read-out: minimum inhibitory concentration (MIC)).

On to `O=C(O)C1=C(CSc2nnc(CS(=O)(=O)O)s2)CS[C@@H]2[C@H](NC(=O)[C@H](O)c3ccccc3)C(=O)N12` [Compound A, 7-D-mandelamido-3-(5-sulfomethyl-1,3,4-thiadiazol-2-ylthiomethyl)-3-cephem-4-carboxylic acid, disodium salt, tetrahydrate], for which the figures for the ED50 in the assay on Kleb. pneumo. (po), in the assay with Kleb. pneumo. (sc) and in the assay on E. coli (sc) were 8.7 mg/kg, 0.78 mg/kg and 0.3 mg/kg, respectively. Moreover, the figures for the “ED50 in mice against Kleb. pneumo.” value in the assay on Kleb. pneumo. (p.o.) and with Kleb. pneumo. (s.c.) were 8.5 mg/kg and 0.62 mg/kg, respectively. Also, the “ED50 in mice against E. coli” value in the assay on E. coli (s.c.) was 0.39 mg/kg. In addition, the MIC in assay [1] (setting [4]) was 200 µg/mL; in [2], 25 µg/mL; with E. coli HH 33779 (setting [5]) it was 0.8 µg/mL; in [3], 1.6 µg/mL; in the assay on Kleb. pneumo. SK 1200, 0.4 µg/mL; in the assay with Salmonella ATCC 12176 it was 0.4 µg/mL. Moreover, the MIC was 0.4 µg/mL with Entero. cloacae HH 31254; 25 µg/mL in the assay on Strep. Faecalis HH 34358; 0.4 µg/mL in the assay with Kleb. pneumo. SK 4200; 0.4 µg/mL with S. aureus SK 23390 (setting [6]); 1.6 µg/mL in the assay with Proteus morgani 179 (in vitro, Proteus morgani 179); 1.6 µg/mL in the assay with S. aureus HH 127 (setting [7]). The MIC is more than 200 µg/mL in the assay on Pseudo. aeru. HH 63, 0.4 µg/mL with Proteus mirabilis PN-444 (setting [8]) and 0.4 µg/mL in the assay with E. coli SK 12140 (setting [9]).
